Data set [1] is described as follows: Kinetic solubility of the compound in PBS buffer. Type of data set: physicochemical.
Data set [2] addresses Tumour suppressor p53/oncoprotein Mdm2 (Homo sapiens, UniProt Q00987). The experiment in a line: Inhibition of 6His-tagged MDM2 (1 to 118) interaction to FITC-tagged p53 (17 to 26) (unknown origin) after 30 mins by fluorescence polarization assay. Type of data set: protein assay.

The IC50 is the concentration that gives 50% inhibition.

SMILES strings stand for the structures.

Sequence of Tumour suppressor p53/oncoprotein Mdm2 (P04637 whole entry): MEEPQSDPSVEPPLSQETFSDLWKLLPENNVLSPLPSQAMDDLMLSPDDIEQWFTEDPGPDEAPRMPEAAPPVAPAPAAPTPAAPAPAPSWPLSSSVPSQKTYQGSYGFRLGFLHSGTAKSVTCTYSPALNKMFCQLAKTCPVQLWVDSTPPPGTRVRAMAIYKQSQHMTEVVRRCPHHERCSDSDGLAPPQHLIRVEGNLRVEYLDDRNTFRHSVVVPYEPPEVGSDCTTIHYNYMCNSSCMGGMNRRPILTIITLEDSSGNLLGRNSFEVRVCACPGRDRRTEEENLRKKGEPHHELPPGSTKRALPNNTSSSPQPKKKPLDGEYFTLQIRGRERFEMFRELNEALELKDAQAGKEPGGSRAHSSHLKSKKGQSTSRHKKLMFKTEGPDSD
Sequence of Tumour suppressor p53/oncoprotein Mdm2 (Q00987 whole entry): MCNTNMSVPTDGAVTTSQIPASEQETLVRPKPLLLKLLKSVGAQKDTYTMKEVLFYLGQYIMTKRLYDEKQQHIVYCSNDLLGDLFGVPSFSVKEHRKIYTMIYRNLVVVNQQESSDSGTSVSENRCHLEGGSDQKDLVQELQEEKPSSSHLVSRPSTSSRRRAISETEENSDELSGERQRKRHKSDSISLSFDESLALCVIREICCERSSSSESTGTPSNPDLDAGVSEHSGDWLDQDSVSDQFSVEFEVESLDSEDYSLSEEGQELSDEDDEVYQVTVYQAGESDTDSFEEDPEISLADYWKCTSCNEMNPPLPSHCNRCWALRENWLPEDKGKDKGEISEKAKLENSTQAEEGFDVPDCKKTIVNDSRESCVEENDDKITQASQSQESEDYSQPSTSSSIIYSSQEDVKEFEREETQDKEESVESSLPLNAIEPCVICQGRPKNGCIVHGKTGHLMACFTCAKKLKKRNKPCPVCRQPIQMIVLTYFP

In data set [1], `CCOc1ccccc1-c1cc(-c2cc(CC(=O)O)ccc2OCC(C)C)nn1CCc1ccccc1` had a Kinetic_solubility of 0.046 Ug/ml. The IC50 in data set [2] was 48.7 µM.
The like results for `CCOc1ccccc1-c1cc(-c2cc(C(=O)O)ccc2OC)nn1CCc1ccccc1` were, in that order, more than 0.2 Ug/ml and 232 µM.
The matching figures for `CCOc1ccccc1-c1cc(-c2cc(C(=O)O)ccc2OC)nn1Cc1ccccc1`: 0.039 Ug/ml and 238 µM.
The like results for `CCOc1ccccc1-c1cc(-c2cc(CC(=O)O)ccc2OCc2cccc(Cl)c2)nn1CCc1ccccc1` were, in that order, less than 0.015 Ug/ml and 249 µM.
Take `CCOc1ccccc1-c1cc(-c2cc(CCC(=O)O)ccc2OC)nn1CCc1ccccc1`: in data set [1], the Kinetic_solubility was more than 0.2 Ug/ml. In data set [2], this compound had an IC50 of 258 µM.
Compound `CCOc1ccccc1-c1cc(-c2cc(CC(=O)O)ccc2OC)nn1Cc1ccccc1` registered a Kinetic_solubility in data set [1] of 0.138 Ug/ml. The IC50 in data set [2] was 288 µM.
The like results for `CCOc1ccc(C(=O)O)cc1-c1cc(-c2cccc(OC)c2OC)n(Cc2ccccc2)n1` were, in that order, 0.138 Ug/ml and 295 µM.
The matching figures for `CCCOc1ccc(CC(=O)O)cc1-c1cc(-c2cccc(OC)c2OC)n(Cc2ccccc2)n1`: more than 0.2 Ug/ml and 329 µM.
The matching figures for `CCOc1ccccc1-c1cc(-c2cc(CC(=O)O)ccc2OC)nn1CCc1ccccc1`: more than 0.2 Ug/ml and 339 µM.
In data set [1], `CCOc1ccccc1-c1cc(-c2ccc(C(=O)O)cc2)nn1Cc1ccccc1` gave a Kinetic_solubility of 0.117 Ug/ml. In data set [2], this compound returned an IC50 of 346 µM.
In data set [1], `CCOc1ccc(CC(=O)O)cc1-c1cc(-c2cccc(OC)c2OC)n(Cc2ccccc2)n1` yielded a Kinetic_solubility of more than 0.2 Ug/ml. Further, the IC50 in data set [2] amounted to 348 µM.
The like results for `CCOc1ccc(CCC(=O)O)cc1-c1cc(-c2cccc(OC)c2OC)n(Cc2ccccc2)n1` were, in that order, more than 0.2 Ug/ml and 353 µM.
The matching figures for `CCOc1ccccc1-c1cc(-c2cc(CCC(=O)O)ccc2OC)nn1Cc1ccccc1`: more than 0.2 Ug/ml and 388 µM.
In data set [1], `COc1ccc(CCC(=O)O)cc1-c1cc(-c2cccc(OC)c2OC)n(CCc2ccccc2)n1` showed a Kinetic_solubility of more than 0.2 Ug/ml. For the same compound, the IC50 in data set [2] is 436 µM.
In the case of `COc1ccc(CCC(=O)O)cc1-c1cc(-c2cccc(OC)c2OC)n(Cc2ccccc2)n1`, the Kinetic_solubility in data set [1] is 0.169 Ug/ml. In addition, it took 449 µM to reach half-maximal inhibition in data set [2] (IC50).
The like results for `COc1ccc(CC(=O)O)cc1-c1cc(-c2ccc(F)cc2)n(Cc2ccccc2)n1` were, in that order, more than 0.2 Ug/ml and 595 µM.
Compound `COc1ccc(CC(=O)O)cc1-c1cc(-c2cccc(OC)c2OC)n(CCc2ccccc2)n1` displayed a Kinetic_solubility in data set [1] of more than 0.2 Ug/ml. In addition, in data set [2], the IC50 was 727 µM.
The like results for `COc1ccc(CC(=O)O)cc1-c1cc(-c2cccc(OC)c2OC)n(Cc2ccccc2)n1` were, in that order, more than 0.2 Ug/ml and 967 µM.
Turning to `COc1ccc(C(=O)O)cc1-c1cc(-c2cccc(OC)c2OC)n(Cc2ccccc2)n1`, the Kinetic_solubility in data set [1] is more than 0.2 Ug/ml. Besides, the IC50 in data set [2] was 1020 µM.
The matching figures for `CCCOc1ccc(C(=O)O)cc1-c1cc(-c2cccc(OC)c2OC)n(CCc2ccccc2)n1`: 0.117 Ug/ml and 6.56 µM.
The like results for `COc1cccc(-c2cc(-c3cc(C(=O)O)ccc3OCC(C)C)nn2CCc2ccccc2)c1OC` were, in that order, 0.056 Ug/ml and 8.22 µM.
The matching figures for `CCOc1ccc(C(=O)O)cc1-c1cc(-c2ccccc2OCC)n(CCc2ccccc2)n1`: 0.022 Ug/ml and 10.7 µM.
As to `CCOc1ccc(C(=O)O)cc1-c1cc(-c2cccc(OC)c2OC)n(CCc2ccccc2)n1`, the Kinetic_solubility in data set [1] was more than 0.2 Ug/ml. In data set [2], this compound had an IC50 of 14 µM.
The like results for `CCCCOc1ccc(C(=O)O)cc1-c1cc(-c2cccc(OC)c2OC)n(CCc2ccccc2)n1` were, in that order, 0.066 Ug/ml and 14.2 µM.
The matching figures for `CCOc1ccccc1-c1cc(-c2cc(C(=O)O)ccc2OCC(C)C)nn1CCc1ccccc1`: 0.015 Ug/ml and 14.2 µM.
The matching figures for `CCCCOc1ccc(C(=O)O)cc1-c1cc(-c2ccccc2OCC)n(CCc2ccccc2)n1`: 0.032 Ug/ml and 16.8 µM.
The compound `COc1ccc(CCC(=O)O)cc1-c1cc(-c2ccc(F)cc2)n(Cc2ccccc2)n1` gave a Kinetic_solubility in data set [1] of 0.066 Ug/ml. The IC50 in data set [2] came to 17 µM.
The like results for `COc1cccc(-c2cc(-c3cc(CCC(=O)O)ccc3OCc3cccc(Cl)c3)nn2Cc2ccccc2)c1OC` were, in that order, less than 0.015 Ug/ml and 31.6 µM.
The like results for `COc1cccc(-c2cc(-c3cc(CCC(=O)O)ccc3OCc3cccc(Cl)c3)nn2CCc2ccccc2)c1OC` were, in that order, less than 0.015 Ug/ml and 34 µM.
`CCOc1ccc(CCC(=O)O)cc1-c1cc(-c2ccc(F)cc2)n(CCc2ccccc2)n1` displayed a Kinetic_solubility in data set [1] of more than 0.2 Ug/ml. 35.8 µM corresponded to half-maximal inhibition in data set [2] (IC50).
`COc1ccc(CCC(=O)O)cc1-c1cc(-c2ccc(Cl)cc2)n(CCc2ccccc2)n1`: the Kinetic_solubility in data set [1] was determined as 0.046 Ug/ml. In data set [2], this compound returned an IC50 of 38.9 µM.
`O=C(O)CCc1ccc(OCc2cccc(Cl)c2)c(-c2cc(-c3ccc(F)cc3)n(CCc3ccccc3)n2)c1`: the Kinetic_solubility in data set [1] was less than 0.015 Ug/ml. The IC50 in data set [2] came to 47.8 µM.
The like results for `O=C(O)CCc1ccc(OCc2cccc(Cl)c2)c(-c2cc(-c3ccc(F)cc3)n(Cc3ccccc3)n2)c1` were, in that order, less than 0.015 Ug/ml and 51.9 µM.
The matching figures for `CCCCOc1ccc(CC(=O)O)cc1-c1cc(-c2ccccc2OCC)n(CCc2ccccc2)n1`: 0.096 Ug/ml and 54.1 µM.
The like results for `CCOc1ccccc1-c1cc(-c2cc(CC(=O)O)ccc2OCc2cccc(Cl)c2)nn1Cc1ccccc1` were, in that order, less than 0.015 Ug/ml and 54.4 µM.
`CCCOc1ccc(CC(=O)O)cc1-c1cc(-c2cccc(OC)c2OC)n(CCc2ccccc2)n1` came in with a Kinetic_solubility in data set [1] of 0.117 Ug/ml. The compound further yielded an IC50 in data set [2] of 60.6 µM.
The matching figures for `COc1cccc(-c2cc(-c3cc(CC(=O)O)ccc3OCC(C)C)nn2CCc2ccccc2)c1OC`: 0.056 Ug/ml and 68.3 µM.
The matching figures for `CCCOc1ccc(C(=O)O)cc1-c1cc(-c2ccccc2OCC)n(Cc2ccccc2)n1`: 0.096 Ug/ml and 68.8 µM.
The like results for `CCCOc1ccc(CC(=O)O)cc1-c1cc(-c2ccccc2OCC)n(CCc2ccccc2)n1` were, in that order, 0.066 Ug/ml and 72 µM.
`CCCOc1ccc(C(=O)O)cc1-c1cc(-c2cccc(OC)c2OC)n(Cc2ccccc2)n1` displayed a Kinetic_solubility in data set [1] of more than 0.2 Ug/ml. In data set [2], this compound yielded an IC50 of 79.3 µM.
In turn, `COc1ccc(CCC(=O)O)cc1-c1cc(-c2ccc(Cl)cc2)n(Cc2ccccc2)n1` yielded a Kinetic_solubility in data set [1] of 0.019 Ug/ml. Moreover, inhibition in data set [2] was half-maximal at 86.6 µM (IC50).
The matching figures for `CCOc1ccccc1-c1cc(-c2ccc(C(=O)O)cc2)nn1CCc1ccccc1`: more than 0.2 Ug/ml and 91.2 µM.
Compound `CCOc1ccc(CCC(=O)O)cc1-c1cc(-c2ccc(F)cc2)n(Cc2ccccc2)n1` gave a Kinetic_solubility in data set [1] of less than 0.015 Ug/ml. Moreover, the IC50 in data set [2] was 101 µM.
In data set [1], `CCOc1ccc(CC(=O)O)cc1-c1cc(-c2ccccc2OCC)n(CCc2ccccc2)n1` displayed a Kinetic_solubility of more than 0.2 Ug/ml. The compound further yielded an IC50 in data set [2] of 102 µM.
The matching figures for `CCOc1ccc(CCC(=O)O)cc1-c1cc(-c2ccccc2OCC)n(CCc2ccccc2)n1`: 0.102 Ug/ml and 105 µM.
The matching figures for `CCOc1ccc(C(=O)O)cc1-c1cc(-c2ccccc2OCC)n(Cc2ccccc2)n1`: 0.066 Ug/ml and 111 µM.
The like results for `CCCCOc1ccc(CC(=O)O)cc1-c1cc(-c2cccc(OC)c2OC)n(CCc2ccccc2)n1` were, in that order, 0.117 Ug/ml and 116 µM.
In turn, `CCCCOc1ccc(CC(=O)O)cc1-c1cc(-c2cccc(OC)c2OC)n(Cc2ccccc2)n1` showed a Kinetic_solubility in data set [1] of more than 0.2 Ug/ml. In addition, the IC50 in data set [2] amounted to 118 µM.
The matching figures for `COc1cccc(-c2cc(-c3cc(CC(=O)O)ccc3OCC(C)C)nn2Cc2ccccc2)c1OC`: more than 0.2 Ug/ml and 120 µM.
The like results for `O=C(O)c1ccc(-c2cc(-c3ccc(F)cc3)n(CCc3ccccc3)n2)cc1` were, in that order, 0.096 Ug/ml and 128 µM.
`O=C(O)Cc1ccc(OCc2ccccc2Cl)c(-c2cc(-c3ccc(F)cc3)n(Cc3ccccc3)n2)c1`: the Kinetic_solubility in data set [1] is less than 0.015 Ug/ml. This compound also registered an IC50 in data set [2] of 130 µM.
The matching figures for `COc1ccc(C(=O)O)cc1-c1cc(-c2cccc(OC)c2OC)n(CCc2ccccc2)n1`: more than 0.2 Ug/ml and 186 µM.

For the origin of these results see ChEMBL document CHEMBL3132806, “Dual mode of action of phenyl-pyrazole-phenyl (6-5-6 system)-based PPI inhibitors: alpha-helix backbone versus alpha-helix binding epitope” (Medchemcomm, 2013).
